Laboratory results reported in ChEMBL document CHEMBL1201862, “PubChem BioAssay data set” (2004).
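Compound exposure: 48 hours, 5 concentrations, 96-well plates. GI50 marks 50% less growth.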 The source made the active and inactive calls. No stated cut-off is given here; in the data, active = GI50 up to about 1.1 µM and inactive = higher.

What was measured:
Experiment in all cases: NCI anticancer screen, dose series, 48 h
[1] = system: SF-295
[2] = system: XF498
[3] = system: A549
[4] = system: SNB-75
[5] = system: CAKI-1
[6] = system: IGROV-1
[7] = system: OVCAR-4
[8] = system: HCT-15
[9] = system: HCT-116
[10] = system: M14
[11] = system: SK-OV-3
[12] = system: NCI-H226
[13] = system: TK-10
[14] = system: CCRF-CEM
[15] = system: NCI-H460
[16] = system: A498
[17] = system: KM12
[18] = system: NCI-H23

CCOC(=O)CC1=CSC2=NCCN12
GI50 [1]: > 100 µM (inactive)
GI50 [2]: > 100 µM (inactive)
GI50 [3]: > 100 µM (inactive)
GI50 [4]: > 100 µM (inactive)
GI50 [5]: > 100 µM (inactive)
GI50 [6]: > 100 µM (inactive)
GI50 [7]: > 100 µM (inactive)
GI50 [8]: > 100 µM
GI50 [9]: > 100 µM (inactive)
GI50 [10]: > 100 µM (inactive)
GI50 [11]: > 100 µM (inactive)
GI50 [12]: > 100 µM (inactive)
GI50 [13]: > 100 µM (inactive)
GI50 [14]: > 100 µM (inactive)
GI50 [15]: > 100 µM (inactive)
GI50 [16]: > 100 µM (inactive)
GI50 [17]: > 100 µM (inactive)
GI50 [18]: > 100 µM (inactive)

CC(C)=CCc1c(O)cc(O)c2c1OC(c1ccc(O)cc1)C(O)C2=O (stereo not given)
GI50 [1]: 27.5 µM (inactive)
GI50 [2]: 30.2 µM (inactive)
GI50 [3]: 26.1 µM (inactive)
GI50 [4]: 26.8 µM (inactive)
GI50 [6]: 32 µM (inactive)
GI50 [7]: 30.5 µM (inactive)
GI50 [8]: 21.7 µM
GI50 [9]: 32.4 µM (inactive)
GI50 [10]: 22.6 µM (inactive)
GI50 [11]: 38.4 µM (inactive)
GI50 [12]: 21.9 µM (inactive)
GI50 [13]: 24.9 µM (inactive)
GI50 [14]: > 10 µM (inactive)
GI50 [15]: 27.6 µM (inactive)
GI50 [16]: 42.2 µM (inactive)
GI50 [17]: 26.5 µM (inactive)
GI50 [18]: 18.2 µM (inactive)

CCOC(=O)C1(C#N)C(c2ccccc2)CC(O)(c2ccc([N+](=O)[O-])cc2)C(C(=O)c2ccc([N+](=O)[O-])cc2)C1c1ccccc1 (stereo not given)
GI50 [1]: > 100 µM (inactive)
GI50 [2]: > 100 µM (inactive)
GI50 [3]: > 100 µM (inactive)
GI50 [4]: 21 µM (inactive)
GI50 [5]: > 100 µM (inactive)
GI50 [6]: > 100 µM (inactive)
GI50 [7]: > 100 µM (inactive)
GI50 [8]: > 100 µM
GI50 [9]: > 100 µM (inactive)
GI50 [10]: > 100 µM (inactive)
GI50 [11]: > 100 µM (inactive)
GI50 [12]: > 100 µM (inactive)
GI50 [13]: > 100 µM (inactive)
GI50 [14]: > 100 µM (inactive)
GI50 [15]: > 100 µM (inactive)
GI50 [17]: > 100 µM (inactive)
GI50 [18]: 42.2 µM (inactive)

C/C(CC(=O)Nc1ccc(Cl)cc1)=N\NC(=O)C[n+]1ccccc1
GI50 [1]: > 100 µM (inactive)
GI50 [2]: > 100 µM (inactive)
GI50 [3]: > 100 µM (inactive)
GI50 [4]: > 100 µM (inactive)
GI50 [6]: > 100 µM (inactive)
GI50 [9]: > 100 µM (inactive)
GI50 [10]: > 100 µM (inactive)
GI50 [11]: > 100 µM (inactive)
GI50 [12]: > 100 µM (inactive)
GI50 [13]: > 100 µM (inactive)
GI50 [14]: > 100 µM (inactive)
GI50 [15]: > 100 µM (inactive)
GI50 [17]: > 100 µM (inactive)
GI50 [18]: > 100 µM (inactive)

COc1cc(NC(C)=O)c2[nH]c3c(C)cc(NC(C)=O)c(C)c3c2c1
GI50 [1]: > 100 µM (inactive)
GI50 [2]: > 100 µM (inactive)
GI50 [3]: > 100 µM (inactive)
GI50 [4]: > 100 µM (inactive)
GI50 [5]: > 100 µM (inactive)
GI50 [6]: > 100 µM (inactive)
GI50 [7]: > 100 µM (inactive)
GI50 [8]: > 100 µM
GI50 [9]: > 100 µM (inactive)
GI50 [10]: > 100 µM (inactive)
GI50 [11]: > 100 µM (inactive)
GI50 [12]: > 100 µM (inactive)
GI50 [13]: > 100 µM (inactive)
GI50 [14]: > 100 µM (inactive)
GI50 [15]: > 100 µM (inactive)
GI50 [16]: > 100 µM (inactive)
GI50 [17]: > 100 µM (inactive)
GI50 [18]: > 100 µM (inactive)

COc1cc2c(c(OC)c1OC)-c1ccc(SC)c(=O)cc1[C@@H](NCc1ccc(C#N)cc1)CC2
GI50 [1]: 0.00369 µM (active)
GI50 [2]: 0.00321 µM (active)
GI50 [3]: 0.00411 µM (active)
GI50 [4]: 0.00307 µM (active)
GI50 [5]: 0.00701 µM (active)
GI50 [6]: 0.00412 µM (active)
GI50 [7]: 3.74 µM (inactive)
GI50 [8]: 0.00472 µM
GI50 [9]: 0.00387 µM (active)
GI50 [10]: 0.00326 µM (active)
GI50 [11]: 0.0031 µM (active)
GI50 [12]: 0.00391 µM (active)
GI50 [13]: 0.00811 µM (active)
GI50 [14]: 0.00414 µM (active)
GI50 [15]: 0.00379 µM (active)
GI50 [16]: 0.00589 µM (active)
GI50 [17]: 0.00469 µM (active)
GI50 [18]: 0.00274 µM (active)

CCOc1ccc(NCC(=O)N2CC(=O)Nc3ccccc32)cc1
GI50 [1]: > 100 µM (inactive)
GI50 [2]: > 100 µM (inactive)
GI50 [3]: > 100 µM (inactive)
GI50 [4]: > 100 µM (inactive)
GI50 [5]: > 100 µM (inactive)
GI50 [7]: > 100 µM (inactive)
GI50 [8]: > 100 µM
GI50 [9]: > 100 µM (inactive)
GI50 [10]: > 100 µM (inactive)
GI50 [11]: > 100 µM (inactive)
GI50 [12]: > 100 µM (inactive)
GI50 [13]: > 100 µM (inactive)
GI50 [14]: > 100 µM (inactive)
GI50 [15]: > 100 µM (inactive)
GI50 [17]: > 100 µM (inactive)
GI50 [18]: > 100 µM (inactive)

CC(=O)CCC#Cc1ccccc1C(=O)C(C)=[N+]=[N-]
GI50 [1]: 45 µM (inactive)
GI50 [2]: 20.5 µM (inactive)
GI50 [3]: 41 µM (inactive)
GI50 [4]: 15.6 µM (inactive)
GI50 [6]: 30 µM (inactive)
GI50 [7]: 50.9 µM (inactive)
GI50 [8]: 48.8 µM
GI50 [9]: 13 µM (inactive)
GI50 [10]: 20.3 µM (inactive)
GI50 [11]: 57.7 µM (inactive)
GI50 [12]: 48.5 µM (inactive)
GI50 [13]: > 100 µM (inactive)
GI50 [14]: 6.08 µM (inactive)
GI50 [15]: 37.4 µM (inactive)
GI50 [16]: 53.6 µM (inactive)
GI50 [17]: 45 µM (inactive)
GI50 [18]: 36.1 µM (inactive)
